Reference: PubChem BioAssay (NCI)
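These data come from cells grown in 96-well plates and exposed to compound for 48 hours at five concentrations. Abbreviation: GI50, concentration required for 50% inhibition of growth. Definition used: TGI = concentration required for complete inhibition of growth.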

Assays:
Experiment in all cases: growth of human tumour cells (NCI), 48 h
786-0 renal = test system: 786-0 renal
A498 renal = test system: A498 renal
A549 NSCLC = test system: A549 NSCLC
ACHN renal = test system: ACHN renal
BT-549 breast = test system: BT-549 breast
CAKI-1 renal = test system: CAKI-1 renal
CCRF-CEM leukemia = test system: CCRF-CEM leukemia
COLO 205 colon = test system: COLO 205 colon
DU-145 prostate = test system: DU-145 prostate
EKVX NSCLC = test system: EKVX NSCLC
HCC-2998 colon = test system: HCC-2998 colon
HCT-116 colon = test system: HCT-116 colon
HCT-15 colon = test system: HCT-15 colon
HL-60(TB) leukemia = test system: HL-60(TB) leukemia
HOP-62 NSCLC = test system: HOP-62 NSCLC
HOP-92 NSCLC = test system: HOP-92 NSCLC
HS 578T breast = test system: HS 578T breast
HT29 colon = test system: HT29 colon
IGROV1 ovarian = test system: IGROV1 ovarian
K-562 leukemia = test system: K-562 leukemia
KM12 colon = test system: KM12 colon
LOX IMVI melanoma = test system: LOX IMVI melanoma
M14 melanoma = test system: M14 melanoma
MALME-3M melanoma = test system: MALME-3M melanoma
MCF7 breast = test system: MCF7 breast
MDA-MB-231 breast = test system: MDA-MB-231 breast
MDA-MB-435 = test system: MDA-MB-435
MDA-MB-468 breast = test system: MDA-MB-468 breast
MOLT-4 leukemia = test system: MOLT-4 leukemia
NCI-H226 lung = test system: NCI-H226 lung
NCI-H23 lung = test system: NCI-H23 lung
NCI-H460 lung = test system: NCI-H460 lung
NCI-H522 lung = test system: NCI-H522 lung
NCI/ADR-RES ovarian = test system: NCI/ADR-RES ovarian
OVCAR-3 ovarian = test system: OVCAR-3 ovarian
OVCAR-4 ovarian = test system: OVCAR-4 ovarian
OVCAR-5 ovarian = test system: OVCAR-5 ovarian
OVCAR-8 ovarian = test system: OVCAR-8 ovarian
PC-3 prostate = test system: PC-3 prostate
RPMI-8226 leukemia = test system: RPMI-8226 leukemia
SF-268 CNS = test system: SF-268 CNS
SF-295 CNS = test system: SF-295 CNS
SF-539 CNS = test system: SF-539 CNS
SK-MEL-2 melanoma = test system: SK-MEL-2 melanoma
SK-MEL-28 melanoma = test system: SK-MEL-28 melanoma
SK-MEL-5 melanoma = test system: SK-MEL-5 melanoma
SK-OV-3 ovarian = test system: SK-OV-3 ovarian
SN12C renal = test system: SN12C renal
SNB-19 CNS = test system: SNB-19 CNS
SNB-75 CNS = test system: SNB-75 CNS
SR leukemia = test system: SR leukemia
SW-620 colon = test system: SW-620 colon
T-47D breast = test system: T-47D breast
TK-10 renal = test system: TK-10 renal
U251 CNS = test system: U251 CNS
UACC-257 melanoma = test system: UACC-257 melanoma
UACC-62 melanoma = test system: UACC-62 melanoma
UO-31 renal = test system: UO-31 renal

In the case of `C#CCCCN(CCNc1ccnc2cc(Cl)ccc12)C(=O)CCC(=O)O[C@@H]1O[C@@H]2OC3(C)CC[C@H]4[C@H](C)CC[C@@H]([C@H]1C)[C@@]24OO3`, the GI50 (786-0 renal) is reported as 5.67 µM, the TGI (786-0 renal) is reported as > 11.5 µM and the GI50 (A498 renal) is reported as > 11.5 µM. For the same compound, the TGI (A498 renal) was > 11.5 µM, the GI50 (A549 NSCLC) was 7.37 µM and the TGI (A549 NSCLC) was > 11.5 µM. For the same compound, the GI50 (ACHN renal) was 2.18 µM, the TGI (ACHN renal) was > 11.5 µM and the GI50 (BT-549 breast) was 1.27 µM. For the same compound, the TGI (BT-549 breast) was > 11.5 µM, the GI50 (CAKI-1 renal) was 8.21 µM and the TGI (CAKI-1 renal) was > 11.5 µM. For the same compound, the GI50 (CCRF-CEM leukemia) was 0.697 µM, the TGI (CCRF-CEM leukemia) was > 11.5 µM and the GI50 (COLO 205 colon) was 1.39 µM. The TGI (COLO 205 colon) was > 11.5 µM, the GI50 (DU-145 prostate) was 8.95 µM and the TGI (DU-145 prostate) was > 11.5 µM. The GI50 (EKVX NSCLC) was 1.03 µM, the TGI (EKVX NSCLC) was > 11.5 µM and the GI50 (HCC-2998 colon) was 2.72 µM. For the same compound, the TGI (HCC-2998 colon) was > 11.5 µM, the GI50 (HCT-116 colon) was 0.554 µM and the TGI (HCT-116 colon) was > 11.5 µM. For the same compound, the GI50 (HCT-15 colon) was 0.337 µM, the TGI (HCT-15 colon) was > 11.5 µM and the GI50 (HL-60(TB) leukemia) was 0.364 µM. The TGI (HL-60(TB) leukemia) was 1.82 µM, the GI50 (HOP-62 NSCLC) was > 11.5 µM and the TGI (HOP-62 NSCLC) was > 11.5 µM. For the same compound, the GI50 (HOP-92 NSCLC) was 0.581 µM, the TGI (HOP-92 NSCLC) was 6.74 µM and the GI50 (HS 578T breast) was 1.83 µM. The TGI (HS 578T breast) was > 11.5 µM, the GI50 (HT29 colon) was 0.701 µM and the TGI (HT29 colon) was > 11.5 µM. For the same compound, the GI50 (IGROV1 ovarian) was 3.01 µM, the TGI (IGROV1 ovarian) was > 11.5 µM and the GI50 (K-562 leukemia) was 0.448 µM. The TGI (K-562 leukemia) was > 11.5 µM, the GI50 (KM12 colon) was 0.572 µM and the TGI (KM12 colon) was > 11.5 µM. For the same compound, the GI50 (LOX IMVI melanoma) was 0.676 µM, the TGI (LOX IMVI melanoma) was 2.82 µM and the GI50 (M14 melanoma) was 4.86 µM. The TGI (M14 melanoma) was > 11.5 µM, the GI50 (MALME-3M melanoma) was 2.56 µM and the TGI (MALME-3M melanoma) was > 11.5 µM. For the same compound, the GI50 (MCF7 breast) was 0.805 µM, the TGI (MCF7 breast) was > 11.5 µM and the GI50 (MDA-MB-231 breast) was 9.5 µM. The TGI (MDA-MB-231 breast) was > 11.5 µM, the GI50 (MDA-MB-435) was 0.772 µM and the TGI (MDA-MB-435) was > 11.5 µM. The GI50 (MDA-MB-468 breast) was 1.74 µM, the TGI (MDA-MB-468 breast) was 5.49 µM and the GI50 (MOLT-4 leukemia) was 0.527 µM. The TGI (MOLT-4 leukemia) was 5.82 µM, the GI50 (NCI-H226 lung) was 3.76 µM and the TGI (NCI-H226 lung) was > 11.5 µM. The GI50 (NCI-H23 lung) was 1.08 µM, the TGI (NCI-H23 lung) was > 11.5 µM and the GI50 (NCI-H460 lung) was 5.09 µM. The TGI (NCI-H460 lung) was > 11.5 µM, the GI50 (NCI-H522 lung) was 0.788 µM and the TGI (NCI-H522 lung) was > 11.5 µM. The GI50 (NCI/ADR-RES ovarian) was 1.83 µM, the TGI (NCI/ADR-RES ovarian) was > 11.5 µM and the GI50 (OVCAR-3 ovarian) was 0.876 µM. For the same compound, the TGI (OVCAR-3 ovarian) was > 11.5 µM, the GI50 (OVCAR-4 ovarian) was 1.39 µM and the TGI (OVCAR-4 ovarian) was > 11.5 µM. For the same compound, the GI50 (OVCAR-5 ovarian) was 0.974 µM, the TGI (OVCAR-5 ovarian) was > 11.5 µM and the GI50 (OVCAR-8 ovarian) was 1.04 µM. For the same compound, the TGI (OVCAR-8 ovarian) was > 11.5 µM, the GI50 (PC-3 prostate) was 0.194 µM and the TGI (PC-3 prostate) was > 11.5 µM. For the same compound, the GI50 (RPMI-8226 leukemia) was 0.399 µM, the TGI (RPMI-8226 leukemia) was > 11.5 µM and the GI50 (SF-268 CNS) was 7.45 µM. The TGI (SF-268 CNS) was > 11.5 µM, the GI50 (SF-295 CNS) was 1.87 µM and the TGI (SF-295 CNS) was > 11.5 µM. The GI50 (SF-539 CNS) was 3.99 µM, the TGI (SF-539 CNS) was > 11.5 µM and the GI50 (SK-MEL-2 melanoma) was 4.93 µM. For the same compound, the TGI (SK-MEL-2 melanoma) was > 11.5 µM, the GI50 (SK-MEL-28 melanoma) was 2.64 µM and the TGI (SK-MEL-28 melanoma) was > 11.5 µM. The GI50 (SK-MEL-5 melanoma) was 1.18 µM, the TGI (SK-MEL-5 melanoma) was 8.98 µM and the GI50 (SK-OV-3 ovarian) was > 11.5 µM. The TGI (SK-OV-3 ovarian) was > 11.5 µM, the GI50 (SN12C renal) was 3.06 µM and the TGI (SN12C renal) was > 11.5 µM. The GI50 (SNB-19 CNS) was 7.16 µM, the TGI (SNB-19 CNS) was > 11.5 µM and the GI50 (SNB-75 CNS) was > 11.5 µM. For the same compound, the TGI (SNB-75 CNS) was > 11.5 µM, the GI50 (SR leukemia) was 0.475 µM and the TGI (SR leukemia) was 9.37 µM. The GI50 (SW-620 colon) was 0.643 µM, the TGI (SW-620 colon) was > 11.5 µM and the GI50 (T-47D breast) was 0.402 µM. For the same compound, the TGI (T-47D breast) was > 11.5 µM, the GI50 (TK-10 renal) was 8.12 µM and the TGI (TK-10 renal) was > 11.5 µM. For the same compound, the GI50 (U251 CNS) was 2.73 µM, the TGI (U251 CNS) was > 11.5 µM and the GI50 (UACC-257 melanoma) was 2.3 µM. For the same compound, the TGI (UACC-257 melanoma) was > 11.5 µM, the GI50 (UACC-62 melanoma) was 0.878 µM and the TGI (UACC-62 melanoma) was > 11.5 µM. For the same compound, the GI50 (UO-31 renal) was 1.19 µM and the TGI (UO-31 renal) was > 11.5 µM.
